The METLIN SMRT retention time set (Domingo-Almenara et al. 2019)

Assay: gradient 5% acetonitrile 3 min, to 50% in 2 min, to 85% in 15 min, held 3 min, 100 µL/min
Details: column: Zorbax Extend-C18 2.1 x 50 mm; eluents: water / acetonitrile, 0.1% formic acid
Outline: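 In both positive and negative ionization mode, a quadrupole time-of-flight mass spectrometer coupled to HPLC analyzed pure standards run in mixtures of ~100 molecules. The Zorbax Extend-C18 column (2.1 × 50 mm, 1.8 μm) was operated at 100 μL/min with water and acetonitrile, each containing 0.1% formic acid. The dead volume was 40 μL and the dwell volume 900 μL. Retention time came from adduct peaks that were computationally picked and individually inspected by hand.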

| Compound | RP-LC retention time [s] |
| --- | --- |
| CN(C(=O)CN(Cc1ccc(Cl)cc1)S(=O)(=O)c1cccnc1)c1ccccc1 | 917 |
| COC(=O)c1cc(C(=O)OC)cc(-n2ccc3nc(C)c(C(=O)OC)cc3c2=O)c1 | 844 |
| CC1CCN(C(=O)c2cc3c(s2)CCC(C(=O)N2CCCC2)C3)CC1 (stereo not drawn) | 849 |
| Cc1noc(C)c1CC(=O)N1CC(c2nc(-c3cccs3)no2)C1 | 690 |
| Cc1ccc(-c2csc(NC(=O)CSc3nnc(-c4cc5ccccc5o4)n3C)n2)cc1 | 1050 |
| O=C(CN1C(=O)COc2cc(Cl)ccc21)NC1CC1 | 714 |
| Cc1cc(-c2nnc(SCC(N)=O)o2)c(C)o1 | 625 |
| COCCCNC(=O)c1cccnc1N1CCNC(c2ccccc2)C1 (stereo not drawn) | 578 |
| COc1ccc2cc1Oc1ccc(cc1)CC1c3c(cc(OC)c4c3Oc3cc5c(cc3O4)CCNC5C2)CCN1C (stereo not drawn) | 601 |
| COC(=O)c1ncn2c1C(=O)N(Cc1ccc(F)cc1)C(C)(C(=O)NC1CCCCC1)C2 (stereo not drawn) | 752 |
| Cc1cc(C(=O)Nc2nnc(-c3cccs3)o2)no1 | 632 |
| COc1cc(NC(=O)N2CC3CCCN3c3ccccc32)cc(OC)c1OC (stereo not drawn) | 702 |
| Cc1nn(CC(=O)O)c(=O)c2nc(-c3ccccc3)sc12 | 701 |
| CN1C(=O)c2ccccc2Oc2ccc(C(=O)N3CCC4(CC3)OCCO4)cc21 | 741 |
| Cc1ccc(S(=O)(=O)N2CCN(S(=O)(=O)N3CCCCC3)CC2)cc1 | 922 |
| CC1CN(C(=O)c2ccc(C#N)cc2)c2ccccc2O1 (stereo not drawn) | 914 |
| Cc1ccc(N2C(=O)C3N=NN(Cc4nc(-c5ccccc5C)no4)C3C2=O)cc1C (stereo not drawn) | 1060 |
| O=C1CCCCC(C(=O)Nc2cccc(Cl)c2)N1 (stereo not drawn) | 712 |
| Cc1ccc(-c2noc(CSc3nc4cc5c(cc4c(=O)n3Cc3ccncc3)OCO5)n2)cc1 | 845 |
| CCn1nc2ccc(S(=O)(=O)N3CCC(C)CC3)cn2c1=O | 827 |
| Cc1cccc(S(=O)(=O)N2CC3CN(C(=O)CC4CCCC4)CC(C2)O3)c1 | 890 |
| O=C(Nc1ccc(SCc2nnc(-c3ccc4c(c3)OCO4)o2)cc1)C1CCCCC1 | 1020 |
| COc1ccc(S(=O)(=O)NCc2cccnc2-c2ccc(F)cc2)cc1 | 714 |
| CCCc1ccc(S(=O)(=O)N2CCC(C(=O)NCCc3csc(-c4ccccc4)n3)CC2)cc1 | 1100 |

| Compound | RP-LC retention time [s] |
| --- | --- |
| CC(C)n1cnc(S(=O)(=O)N2CCC(C(=O)NC3CCCCCC3)CC2)c1 | 736 |
| CCN(CC)S(=O)(=O)c1ccc2c(c1)N(CC(=O)NCC1COCCO1)C(=O)C1CCCCN21 (stereo not drawn) | 769 |
| COCCn1ncc(N2CCC(C(=O)NCc3ccc(C)o3)C2)cc1=O (stereo not drawn) | 650 |
| O=C(c1ccco1)N1CCCC(OCc2nc(C3CC3)no2)C1 (stereo not drawn) | 732 |
| CCn1cc(S(=O)(=O)N2C[C@@H](COC)[C@H](c3ccncc3)C2)cn1 | 625 |
| CCn1c(SC)nnc1-c1nn(C)c2c1CN(C(C)=O)CC2 | 664 |
| Cc1noc(/C=C/c2ccc(S(=O)(=O)NCC3CCCO3)s2)c1NC(=O)C1CC1 (stereo not drawn) | 677 |
| CC1(C)C(=O)N(CC(=O)N2CCN(c3ccccn3)CC2)c2ccccc21 | 600 |
| Cc1cc(=O)oc2c3c(cc(OCC(=O)N[C@H](CC(C)C)C(=O)O)c12)OC(C)(C)CC3 | 892 |
| O=C(NCC1CCN(C(=O)Oc2ccccc2)CC1)C(=O)Nc1ccon1 | 741 |
| O=C(NC1CCCC1)c1c[nH]c2ncccc12 | 625 |
| Cc1noc(C)c1CNC(=O)Cc1ccccc1Cl | 725 |
| Cc1nccn1CC(=O)N1C[C@@H](C)[C@H](c2nc(-c3ccncc3)no2)C1 | 569 |
| COc1ccc(CNC(=O)C2CCN(S(=O)(=O)c3cn(C(C)C)cn3)CC2)cc1 | 733 |
| COc1cc(NC(=O)CCc2c(-c3ccccc3)nc3ccccn23)cc(OC)c1 | 671 |
| COc1ccc(CNC(=O)CCc2nnc3c4cc(-c5ccccc5)nn4ccn23)cc1 | 728 |
| COc1cccc(-c2nc(-c3ccc4c(c3)oc(=O)n4C(C)C)no2)c1OC | 1140 |
| COc1ccc(Cc2nnc(SCC(=O)Nc3nc(-c4ccccc4)cs3)o2)cc1 | 985 |
| CC(CCc1ccccc1)NC(=O)C1CCN(S(C)(=O)=O)c2cc(Cl)ccc2O1 (stereo not drawn) | 1070 |
| Cc1ccc(-c2cc3c(=O)n(CC(=O)N4CCCc5ccccc54)ccn3n2)cc1 | 643 |
| Cc1sc2ccn(C)c(=O)c2c1C(=O)Nc1ccccc1 | 818 |
| CCOc1ccccc1NC(=O)C(=O)Nc1ccc([N+](=O)[O-])cc1 | 1060 |
| CCOC(=O)c1[nH]c(C)c(CCC(=O)N2CCC(C(=O)NC3CCCC3)CC2)c1C | 729 |
| CCN(CC)C(=O)c1cc2c(s1)CCC(C(=O)NCc1ccc3c(c1)OCO3)C2 (stereo not drawn) | 830 |

Second part, the compound after the results:

| RP-LC retention time [s] | Compound |
| --- | --- |
| 709 | Cc1cc(NC(=O)CN2C(=O)c3ccccc3C2=O)n(-c2ccccc2)n1 |
| 651 | Cc1ccc2c(Nc3ccc(Cl)c(F)c3)c(C(=O)N3CCSCC3)cnc2n1 |
| 590 | COC(=O)CNC(=O)N1CCN(c2nc3ccccc3n3cccc23)CC1 |
| 1160 | CC(C)CC(=O)Nc1ccc(S(=O)(=O)N2CCCC2c2nc(-c3ccc(Cl)cc3)no2)cc1 (stereo not drawn) |
| 701 | O=C(CCn1cnc2cc(-c3noc(-c4cccc5[nH]ccc45)n3)ccc21)N1CCCC1 |
| 587 | Cc1scc2nc(C3CCC3)nc(N3CCC(C(=O)N4CCN(c5ccccn5)CC4)CC3)c12 |
| 680 | COc1ccc(CC(=O)Nc2ccc3ncnc(N4CCCC4)c3c2)cc1Cl |
| 1140 | COc1nc2ccccc2nc1N1CCCC(C(=O)Nc2ccccc2F)C1 (stereo not drawn) |
| 662 | O=C(NCc1ccccc1)C1CCN(c2cnc3nccnc3c2)CC1 |
| 1180 | Cc1ccc(-c2nc(-c3ccc4c(c3)oc(=O)n4C)no2)cc1C |
| 1020 | Cc1cccc(Nc2c(-c3cc(Br)ccc3O)nc3ncccn23)c1 |
| 610 | CCn1nc(C)c(CCNC(=O)c2cc3c(=O)n(Cc4ccco4)ccc3nc2C)c1C |
| 751 | CCOC(=O)C(C)NC(=O)N1CCc2cc(-c3ccc(C(=O)N4CCOCC4)cc3)ccc21 (stereo not drawn) |
| 848 | O=S(=O)(c1cccn2c(SCc3ccc(Cl)cc3)nnc12)N1CCCC1 |
| 699 | Cc1oc(-c2[nH]ncc2C(=O)N2CCCC2)cc1S(=O)(=O)Nc1cc(F)ccc1F |
| 775 | CCCNC(=O)N1CCCN(C2=NS(=O)(=O)C(c3cccc(Cl)c3)=C2C)CC1 |
| 996 | O=C(c1nnn2c1COC(c1ccc(Cl)cc1)C2)N1CCN(C(=O)C2(c3ccccc3)CC2)CC1 (stereo not drawn) |
| 783 | Cc1nnc(N2CCCC(C(=O)NCCC(C)C)C2)c2nn(-c3ccc(Cl)cc3)c(C)c12 (stereo not drawn) |
| 896 | COC(=O)c1cc2c(=O)n(-c3nccs3)ccc2nc1C |
| 760 | O=C1CCCc2cc(S(=O)(=O)N3CCC(C(=O)NCc4ccccc4Cl)CC3)ccc2N1 |

| RP-LC retention time [s] | Compound |
| --- | --- |
| 1140 | CCOc1c(C(=O)OC)sc2ccc(NC(=O)c3[nH]nc4c3CCc3ccccc3-4)cc12 |
| 803 | CCc1nnc(NC(=O)c2ccoc2COc2ccc(C)cc2)s1 |
| 1050 | Cc1cc(C)c(S(=O)(=O)N2CCC(C(=O)NCc3csc(-c4ccccc4)n3)CC2)cc1C |
| 834 | CNC(=O)N1CCCC(c2cccc(C(=O)N3CCN(c4ccccc4F)CC3)c2)C1 (stereo not drawn) |
| 644 | CCNC(=O)c1nc(-c2ccnc(N3CCOCC3)c2)no1 |
| 961 | c1ccc(-c2nc3nc4c(c(Nc5ccc6c(c5)OCCO6)n3n2)CCC4)cc1 |
| 917 | COc1ccc(-c2nnc(-c3cc(S(=O)(=O)NCC4CCCO4)ccc3Cl)o2)cc1 (stereo not drawn) |
| 687 | Cc1cc(=O)n(CC(=O)N2CCCc3ccccc32)c(N2CCOCC2)n1 |
| 907 | COc1ccccc1NC(=O)N(C)CCc1noc(COc2ccc(F)cc2)n1 |
| 730 | Cc1c(C(=O)NCC(c2cccs2)N2CCCC2)oc2ccc(Cl)cc12 (stereo not drawn) |
| 987 | Cc1ccc(C2CC(=O)N(c3ccc(F)cc3F)C(=O)C2)cc1 |
| 841 | Cc1ccc(NC(=O)Cn2c(=O)c(CCC(=O)NC3CCCC3)nc3ccccc32)c(C)c1 |
| 801 | COc1ccc(CC(=O)N2CCCC2c2nc(-c3ccc(OC)c(OC)c3)no2)cc1OC (stereo not drawn) |
| 733 | COc1cc(OC)c(NC(=O)N2CC(Cc3nc(-c4cnccn4)no3)C2)cc1Cl |
| 976 | CCOC(=O)C1CCN(S(=O)(=O)c2cc(-c3nnc(-c4ccccc4)o3)ccc2OC)CC1 |
| 850 | O=C(NC1CC1)c1ccc(OCC2CCN(C(=O)c3ccc(Cl)cc3)CC2)cc1 |
| 663 | COc1ccc(-c2cc3c(=O)n(CC(=O)N4CCN(c5ccccn5)CC4)nc(C)n3n2)cc1 |
| 878 | COc1ccc(N2CC(c3nc(-c4ccccc4Cl)no3)CC2=O)cc1OC (stereo not drawn) |
| 576 | CCNc1cc(C)nc(N2CCN(C(=O)c3ccccc3Cl)CC2)n1 |
| 931 | Cc1ccc(-n2nnnc2CNC(=O)COc2ccc(Cl)cc2Cl)cc1C |
